What was measured:
5-HT1B = target: T1, 5-HT1B (Homo sapiens, UniProt P28222); test: NIMH PDSP radioligand binding, 5-HT1B; conditions: read-out: Radioligand binding in 10 μM compound (% control)
T1 construct: NIMH PDSP (assay provider)
Protocol: (§1) The NIMH PDSP is Directed by Bryan L. Roth at the University of North Carolina at Chapel Hill and Project Officer Jamie Driscoll at NIMH, Bethesda Md., USA. Radioligand binding was measured in the presence of 10 μM 1180-420 and 1180-447. […] For experimental details please refer to the PDSP web site https://pdsp.unc.edu/ims/investigator/web/. Both 1180-420 and 1180-447 were also tested at AMPA, nicotinic acetylcholine, serotonin, GABA, and glycine ion channels using a two-electrode voltage clamp assay.
(§2) Receptor binding profiles of compound 1180-447 were generously provided by the National Institute of Mental Health's Psychoactive Drug Screening Program, Contract # HHSN-271-2013-00017-C(NIMH PDSP). The NIMH PDSP is directed by Bryan L. Roth at the University of North Carolina at Chapel Hill and Project Officer Jamie Driscoll at NIMH, Bethesda Md., USA. Radioligand binding was measured in the presence of 10 μM 1180-447. […] For experimental details please refer to the PDSP web site https://pdsp.unc.edu/ims/investigator/web/.
(§3) The NIMH PDSP is Directed by Bryan L. Roth at the University of North Carolina at Chapel Hill and Project Officer Jamie Driscoll at NIMH, Bethesda Md., USA. Radioligand binding was measured in the presence of 10 μM 1180-420. […] For experimental details please refer to the PDSP web site https://pdsp.unc.edu/ims/investigator/web/.

5-HT6 = target: T2, 5-HT6 (Homo sapiens, UniProt P50406); test: NIMH PDSP radioligand binding, 5-HT6; conditions: read-out: Radioligand binding in 10 μM compound (% control)
T2 construct: NIMH PDSP (assay provider)
Protocol: as §1, §2, §3

CNS receptors = test: Off-target profile, NIMH PDSP CNS receptors (panel summary); format: binding; conditions: 10 μM
Protocol: as §1, §2, §3

α1B = α1B (Homo sapiens, UniProt P35368); test: NIMH PDSP radioligand binding, α1B; conditions: read-out: Radioligand binding in 10 μM compound (% control)
Protocol: as §1, §2, §3

5-HT2B = target: T3, 5-HT2B (Homo sapiens, UniProt P41595); test: NIMH PDSP radioligand binding, 5-HT2B; conditions: read-out: Radioligand binding in 10 μM compound (% control)
T3 construct: NIMH PDSP (assay provider)
Protocol: as §1, §2, §3

5-HT3 = target: T4, 5-HT3 (Homo sapiens, UniProt P46098); test: NIMH PDSP radioligand binding, 5-HT3; conditions: read-out: Radioligand binding in 10 μM compound (% control)
T4 construct: NIMH PDSP (assay provider)
Protocol: as §1, §2, §3

α1A = α1A (Homo sapiens, UniProt P35348); test: NIMH PDSP radioligand binding, α1A; conditions: read-out: Radioligand binding in 10 μM compound (% control)
Protocol: as §1, §2, §3

5-HT5A = target: T5, 5-HT5A (Homo sapiens, UniProt P47898); test: NIMH PDSP radioligand binding, 5-HT5A; conditions: read-out: Radioligand binding in 10 μM compound (% control)
T5 construct: NIMH PDSP (assay provider)
Protocol: as §1, §2, §3

κ-opioid receptor = κ-opioid receptor (Homo sapiens, UniProt P41145); test: NIMH PDSP radioligand binding, κ-opioid receptor; conditions: for remaining activity at 10 µM: read-out: Radioligand binding in 10 μM compound (% control); for Ki: read-out: pKi values from non-linear regression of radioligand competition binding isotherms (converted)
Protocol: as §1, §2, §3

5-HT1D = target: T6, 5-HT1D (Homo sapiens, UniProt P28221); test: NIMH PDSP radioligand binding, 5-HT1D; conditions: read-out: Radioligand binding in 10 μM compound (% control)
T6 construct: NIMH PDSP (assay provider)
Protocol: as §1, §2, §3

hERG = hERG (Homo sapiens, UniProt Q12809); test: NIMH PDSP hERG binding
Protocol: as §1, §2, §3

GluA2 = target: T7, GluA2 (Homo sapiens, UniProt P42262); test: Off-target two-electrode voltage clamp assay, GluA2; format: cell-based; conditions: 10 μM, mean ± SEM
T7 construct: expressed in transfected cells
Protocol: as §1

σ2 = σ2 (Homo sapiens, UniProt Q5BJF2); test: NIMH PDSP radioligand binding, σ2; conditions: for remaining activity at 10 µM: read-out: Radioligand binding in 10 μM compound (% control); for Ki: read-out: pKi values from non-linear regression of radioligand competition binding isotherms (converted)
Protocol: as §1, §2, §3

H4 = H4 (Homo sapiens, UniProt Q9H3N8); test: NIMH PDSP radioligand binding, H4; conditions: read-out: Radioligand binding in 10 μM compound (% control)
Protocol: as §1, §2, §3

δ-opioid receptor = δ-opioid receptor (Homo sapiens, UniProt P41143); test: NIMH PDSP radioligand binding, δ-opioid receptor; conditions: read-out: Radioligand binding in 10 μM compound (% control)
Protocol: as §1, §2, §3

D1 = target: T8, D1 (Homo sapiens, UniProt P21728); test: NIMH PDSP radioligand binding, D1; conditions: read-out: Radioligand binding in 10 μM compound (% control)
T8 construct: NIMH PDSP (assay provider)
Protocol: as §1, §2, §3

M2 = M2 (Homo sapiens, UniProt P08172); test: NIMH PDSP radioligand binding, M2; conditions: read-out: Radioligand binding in 10 μM compound (% control)
Protocol: as §1, §2, §3

5-HT2A = target: T9, 5-HT2A (Homo sapiens, UniProt P28223); test: NIMH PDSP radioligand binding, 5-HT2A; conditions: for remaining activity at 10 µM: read-out: Radioligand binding in 10 μM compound (% control)
T9 construct: NIMH PDSP (assay provider)
Protocol: as §1, §2, §3

α4β2-nACh = target: T10, α4β2-nACh (Homo sapiens, UniProt P17787+P43681); test: Off-target two-electrode voltage clamp assay, α4β2-nACh; format: cell-based; conditions: 10 μM, mean ± SEM
T10 construct: expressed in transfected cells
Protocol: as §1

GABAA = test: NIMH PDSP radioligand binding, GABAA
Protocol: as §1, §2, §3

M1 = M1 (Homo sapiens, UniProt P11229); test: NIMH PDSP radioligand binding, M1; conditions: read-out: Radioligand binding in 10 μM compound (% control)
Protocol: as §1, §2, §3

α1D = α1D (Homo sapiens, UniProt P25100); test: NIMH PDSP radioligand binding, α1D; conditions: read-out: Radioligand binding in 10 μM compound (% control)
Protocol: as §1, §2, §3

μ-opioid receptor = μ-opioid receptor (Homo sapiens, UniProt P35372); test: NIMH PDSP radioligand binding, μ-opioid receptor; conditions: read-out: Radioligand binding in 10 μM compound (% control)
Protocol: as §1, §2, §3

[1] = target: norepinephrine transporter (Homo sapiens, UniProt P23975); test: NIMH PDSP radioligand binding, norepinephrine transporter; conditions: read-out: Radioligand binding in 10 μM compound (% control)
Protocol: as §1, §2, §3

M3 = M3 (Homo sapiens, UniProt P20309); test: NIMH PDSP radioligand binding, M3; conditions: read-out: Radioligand binding in 10 μM compound (% control)
Protocol: as §1, §2, §3

[2] = tested on: benzodiazapine rat brain site; test: NIMH PDSP radioligand binding, benzodiazapine rat brain site
Protocol: as §1, §2, §3

D5 = target: T11, D5 (Homo sapiens, UniProt P21918); test: NIMH PDSP radioligand binding, D5; conditions: for remaining activity at 10 µM: read-out: Radioligand binding in 10 μM compound (% control)
T11 construct: NIMH PDSP (assay provider)
Protocol: as §1, §2, §3

D2 = target: T12, D2 (Homo sapiens, UniProt P14416); test: NIMH PDSP radioligand binding, D2; conditions: read-out: Radioligand binding in 10 μM compound (% control)
T12 construct: NIMH PDSP (assay provider)
Protocol: as §1, §2, §3

σ1 = σ1 (Homo sapiens, UniProt Q99720); test: NIMH PDSP radioligand binding, σ1; conditions: read-out: Radioligand binding in 10 μM compound (% control)
Protocol: as §1, §2, §3

[3] = read-out: pKi values from non-linear regression of radioligand competition binding isotherms (converted)

Chain of σ2 (Q5BJF2 whole entry): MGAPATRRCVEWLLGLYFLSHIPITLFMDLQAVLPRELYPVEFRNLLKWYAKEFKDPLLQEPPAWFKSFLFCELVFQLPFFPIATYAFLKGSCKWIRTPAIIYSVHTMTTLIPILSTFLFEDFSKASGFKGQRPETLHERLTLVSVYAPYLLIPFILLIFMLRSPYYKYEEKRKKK
Chain of κ-opioid receptor (P41145 whole entry): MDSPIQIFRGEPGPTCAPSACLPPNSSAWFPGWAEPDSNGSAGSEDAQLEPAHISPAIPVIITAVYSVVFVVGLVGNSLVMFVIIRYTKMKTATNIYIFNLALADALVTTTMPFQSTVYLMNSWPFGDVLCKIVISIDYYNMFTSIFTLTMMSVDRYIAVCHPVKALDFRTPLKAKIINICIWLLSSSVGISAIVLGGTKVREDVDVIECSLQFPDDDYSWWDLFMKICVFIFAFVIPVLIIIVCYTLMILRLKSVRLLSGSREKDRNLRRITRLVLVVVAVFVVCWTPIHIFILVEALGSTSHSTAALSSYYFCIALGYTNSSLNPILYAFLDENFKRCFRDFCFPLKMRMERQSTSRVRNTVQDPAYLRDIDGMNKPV
T11 sequence (P21918 whole entry): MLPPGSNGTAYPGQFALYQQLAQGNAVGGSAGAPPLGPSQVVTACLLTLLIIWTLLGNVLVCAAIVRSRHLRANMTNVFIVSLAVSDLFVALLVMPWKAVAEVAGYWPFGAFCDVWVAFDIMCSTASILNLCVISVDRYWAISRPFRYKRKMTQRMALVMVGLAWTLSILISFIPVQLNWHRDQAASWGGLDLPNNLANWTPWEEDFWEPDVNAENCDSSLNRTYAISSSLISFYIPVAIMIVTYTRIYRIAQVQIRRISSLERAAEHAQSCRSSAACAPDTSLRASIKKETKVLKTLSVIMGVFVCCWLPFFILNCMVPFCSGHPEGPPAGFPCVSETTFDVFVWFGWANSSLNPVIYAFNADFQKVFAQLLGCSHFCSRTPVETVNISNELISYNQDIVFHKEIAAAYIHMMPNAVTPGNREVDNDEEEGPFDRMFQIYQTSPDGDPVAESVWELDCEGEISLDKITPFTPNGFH
T9 sequence (P28223 whole entry, species assumed): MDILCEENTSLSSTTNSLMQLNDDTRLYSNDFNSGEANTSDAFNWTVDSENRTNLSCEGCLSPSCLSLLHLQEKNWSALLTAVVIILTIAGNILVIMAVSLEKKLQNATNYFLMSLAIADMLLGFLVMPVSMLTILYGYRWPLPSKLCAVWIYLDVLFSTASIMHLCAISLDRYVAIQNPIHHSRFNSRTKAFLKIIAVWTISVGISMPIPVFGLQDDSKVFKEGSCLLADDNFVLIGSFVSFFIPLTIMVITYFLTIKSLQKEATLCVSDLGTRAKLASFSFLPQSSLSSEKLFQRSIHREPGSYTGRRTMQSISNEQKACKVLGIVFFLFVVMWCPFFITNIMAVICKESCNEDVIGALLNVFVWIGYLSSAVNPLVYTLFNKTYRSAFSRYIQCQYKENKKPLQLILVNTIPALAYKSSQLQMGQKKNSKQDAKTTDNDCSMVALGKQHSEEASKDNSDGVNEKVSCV
T8 sequence (P21728 whole entry): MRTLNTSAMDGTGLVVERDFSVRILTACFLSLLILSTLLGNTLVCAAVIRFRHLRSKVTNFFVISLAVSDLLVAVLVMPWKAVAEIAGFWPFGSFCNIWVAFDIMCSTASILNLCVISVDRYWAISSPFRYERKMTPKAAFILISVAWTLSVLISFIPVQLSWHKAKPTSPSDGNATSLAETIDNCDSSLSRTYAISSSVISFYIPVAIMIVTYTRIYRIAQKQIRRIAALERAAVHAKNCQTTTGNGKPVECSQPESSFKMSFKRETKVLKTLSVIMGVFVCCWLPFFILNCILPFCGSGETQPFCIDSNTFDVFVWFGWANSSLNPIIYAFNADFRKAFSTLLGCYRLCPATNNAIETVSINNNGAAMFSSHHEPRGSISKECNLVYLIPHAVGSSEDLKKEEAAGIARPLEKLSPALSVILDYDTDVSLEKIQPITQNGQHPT
Chain of H4 (Q9H3N8 whole entry): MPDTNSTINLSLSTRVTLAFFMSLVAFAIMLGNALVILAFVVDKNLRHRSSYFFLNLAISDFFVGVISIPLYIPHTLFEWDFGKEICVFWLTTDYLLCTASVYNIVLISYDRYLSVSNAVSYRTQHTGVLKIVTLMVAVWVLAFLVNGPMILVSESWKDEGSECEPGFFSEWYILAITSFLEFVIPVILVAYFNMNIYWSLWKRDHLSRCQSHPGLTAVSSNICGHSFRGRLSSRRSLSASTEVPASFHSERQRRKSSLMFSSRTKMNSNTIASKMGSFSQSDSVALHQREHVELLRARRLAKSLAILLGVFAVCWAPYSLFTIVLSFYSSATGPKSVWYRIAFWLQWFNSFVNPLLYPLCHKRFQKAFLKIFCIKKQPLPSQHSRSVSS
Chain of M2 (P08172 whole entry): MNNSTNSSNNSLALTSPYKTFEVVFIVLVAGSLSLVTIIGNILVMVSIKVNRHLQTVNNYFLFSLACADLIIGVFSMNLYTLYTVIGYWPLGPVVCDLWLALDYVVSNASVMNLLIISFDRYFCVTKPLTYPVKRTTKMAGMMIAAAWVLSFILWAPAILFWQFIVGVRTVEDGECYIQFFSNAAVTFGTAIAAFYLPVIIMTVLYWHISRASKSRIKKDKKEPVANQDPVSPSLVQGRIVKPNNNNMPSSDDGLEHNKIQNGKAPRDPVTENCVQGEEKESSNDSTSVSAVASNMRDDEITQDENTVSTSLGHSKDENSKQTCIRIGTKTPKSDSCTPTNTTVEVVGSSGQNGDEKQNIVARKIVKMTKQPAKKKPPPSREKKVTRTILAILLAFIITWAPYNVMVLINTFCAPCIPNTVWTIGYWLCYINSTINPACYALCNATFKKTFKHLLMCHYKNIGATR
Chain of σ1 (Q99720 whole entry): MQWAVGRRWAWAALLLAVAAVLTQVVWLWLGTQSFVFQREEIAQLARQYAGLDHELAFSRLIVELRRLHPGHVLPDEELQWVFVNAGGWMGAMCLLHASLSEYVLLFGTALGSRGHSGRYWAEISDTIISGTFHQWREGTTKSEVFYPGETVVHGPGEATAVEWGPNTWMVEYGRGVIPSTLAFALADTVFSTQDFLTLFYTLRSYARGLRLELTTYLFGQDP
Chain of α1B (P35368 whole entry): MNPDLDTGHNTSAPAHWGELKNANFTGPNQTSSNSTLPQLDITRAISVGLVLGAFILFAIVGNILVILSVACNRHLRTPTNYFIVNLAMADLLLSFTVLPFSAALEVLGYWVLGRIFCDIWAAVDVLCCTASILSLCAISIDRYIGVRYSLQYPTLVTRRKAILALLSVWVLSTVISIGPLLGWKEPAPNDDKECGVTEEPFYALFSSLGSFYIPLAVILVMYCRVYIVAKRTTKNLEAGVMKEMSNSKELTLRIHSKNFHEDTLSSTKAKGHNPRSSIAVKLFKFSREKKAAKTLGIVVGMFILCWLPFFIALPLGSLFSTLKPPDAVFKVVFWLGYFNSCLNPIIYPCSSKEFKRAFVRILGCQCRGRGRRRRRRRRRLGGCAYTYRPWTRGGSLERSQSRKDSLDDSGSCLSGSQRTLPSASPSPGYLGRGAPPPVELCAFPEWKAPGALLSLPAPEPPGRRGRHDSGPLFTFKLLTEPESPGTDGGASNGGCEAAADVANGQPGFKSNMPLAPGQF
Chain of norepinephrine transporter (P23975 whole entry, species assumed): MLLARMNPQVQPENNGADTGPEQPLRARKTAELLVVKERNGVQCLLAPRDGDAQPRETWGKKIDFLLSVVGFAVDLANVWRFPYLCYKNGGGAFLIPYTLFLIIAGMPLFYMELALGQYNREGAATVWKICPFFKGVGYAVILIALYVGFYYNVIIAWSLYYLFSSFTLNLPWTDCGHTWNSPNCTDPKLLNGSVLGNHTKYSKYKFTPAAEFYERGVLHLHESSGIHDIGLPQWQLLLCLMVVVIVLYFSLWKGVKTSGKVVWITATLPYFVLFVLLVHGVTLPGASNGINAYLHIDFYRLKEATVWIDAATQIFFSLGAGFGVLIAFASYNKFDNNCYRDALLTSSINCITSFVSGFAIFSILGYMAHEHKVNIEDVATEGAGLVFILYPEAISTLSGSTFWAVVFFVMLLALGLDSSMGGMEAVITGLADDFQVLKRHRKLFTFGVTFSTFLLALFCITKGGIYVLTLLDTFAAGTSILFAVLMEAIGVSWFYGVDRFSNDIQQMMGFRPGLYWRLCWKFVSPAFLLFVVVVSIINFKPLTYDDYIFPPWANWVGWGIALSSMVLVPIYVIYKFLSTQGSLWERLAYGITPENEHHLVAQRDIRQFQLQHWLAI
Chain of δ-opioid receptor (P41143 whole entry): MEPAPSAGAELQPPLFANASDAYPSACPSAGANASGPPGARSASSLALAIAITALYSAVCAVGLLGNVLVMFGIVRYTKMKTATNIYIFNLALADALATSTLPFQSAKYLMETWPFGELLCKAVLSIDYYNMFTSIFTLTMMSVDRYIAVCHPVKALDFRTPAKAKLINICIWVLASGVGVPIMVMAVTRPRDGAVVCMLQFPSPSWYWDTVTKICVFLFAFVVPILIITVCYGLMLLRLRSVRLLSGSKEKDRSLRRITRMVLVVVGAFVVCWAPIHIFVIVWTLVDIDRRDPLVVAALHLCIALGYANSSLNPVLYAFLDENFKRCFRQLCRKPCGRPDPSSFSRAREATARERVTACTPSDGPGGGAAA
Chain of μ-opioid receptor (P35372 whole entry, species assumed): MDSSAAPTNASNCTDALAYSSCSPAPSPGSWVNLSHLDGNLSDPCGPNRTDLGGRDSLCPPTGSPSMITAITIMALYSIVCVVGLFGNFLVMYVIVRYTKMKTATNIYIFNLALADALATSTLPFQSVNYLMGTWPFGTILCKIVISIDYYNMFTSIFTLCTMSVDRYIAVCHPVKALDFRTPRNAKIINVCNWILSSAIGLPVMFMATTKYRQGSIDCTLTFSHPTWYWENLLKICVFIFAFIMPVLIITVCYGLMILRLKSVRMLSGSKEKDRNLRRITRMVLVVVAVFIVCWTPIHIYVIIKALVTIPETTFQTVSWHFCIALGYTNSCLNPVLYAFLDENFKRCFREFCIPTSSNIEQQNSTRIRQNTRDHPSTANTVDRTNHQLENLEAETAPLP

Compound	remaining activity at 10 µM (5-HT1B)	remaining activity at 10 µM (5-HT6)	receptors with >50% inhibition / receptors tested (CNS receptors)	remaining activity at 10 µM (α1B)	remaining activity at 10 µM (5-HT2B)	remaining activity at 10 µM (5-HT3)	remaining activity at 10 µM (α1A)	remaining activity at 10 µM (5-HT5A)	remaining activity at 10 µM (κ-opioid receptor)	Ki (κ-opioid receptor)	remaining activity at 10 µM (5-HT1D)	Radioligand binding in 10 μM compound (% control) (hERG)	% control response (GluA2)	remaining activity at 10 µM (σ2)	Ki (σ2)	remaining activity at 10 µM (H4)	remaining activity at 10 µM (δ-opioid receptor)	remaining activity at 10 µM (D1)	remaining activity at 10 µM (M2)	remaining activity at 10 µM (5-HT2A)	further results
COc1ccc(OCC2c3cccn3CC(=O)N2Cc2cccc(C(F)(F)F)c2)cc1 (racemic) [1180-447, 1-((4-Methoxyphenoxy)methyl)-2-(3-(trifluoromethyl)benzyl)-1,2-dihydropyrrolo[1,2-a]pyrazin-3(4H)-one]	109%	85%	4/44	102%	78%	68%	97%	92%	47%	1580 nM	115%	70 % control	99.3 ± 2.9 % control response	32%	1580 nM	107%	93%	87%	90%	49%	Ki (5-HT2A; [3]): 2000 nM; % control response (α4β2-nACh): 52.7 ± 6.3 % control response; Radioligand binding in 10 μM compound (% control) (GABAA): 118 % control; remaining activity at 10 µM (M1): 88%; remaining activity at 10 µM (α1D): 79%; remaining activity at 10 µM (μ-opioid receptor): 99%; remaining activity at 10 µM [1]: 70%; remaining activity at 10 µM (M3): 87%; Radioligand binding in 10 μM compound (% control) [2]: 88 % control; remaining activity at 10 µM (D5): 67%; remaining activity at 10 µM (D2): 101%; remaining activity at 10 µM (σ1): 76%
COc1ccc(OCC2c3cccn3CCN2C(=O)c2cccc(Cl)c2)cc1 (stereo not shown) [1180-420, (3-Chlorophenyl)(1-((4-methoxyphenoxy)methyl)-3,4-dihydropyrrolo[1,2-a]pyrazin-2(1H)-yl)methanone]	95%	75%	4/44	100%	97%	116%	91%	95%	32%	1580 nM	112%	73 % control	101.6 ± 1.3 % control response	48%	1580 nM	90%	89%	59%	110%	69%	% control response (α4β2-nACh): 56.4 ± 5.3 % control response; Radioligand binding in 10 μM compound (% control) (GABAA): 110 % control; remaining activity at 10 µM (M1): 90%; remaining activity at 10 µM (α1D): 79%; remaining activity at 10 µM (μ-opioid receptor): 104%; remaining activity at 10 µM [1]: 75%; remaining activity at 10 µM (M3): 69%; Radioligand binding in 10 μM compound (% control) [2]: 71 % control; remaining activity at 10 µM (D5): 37%; Ki (D5; [3]): 1260 nM; remaining activity at 10 µM (D2): 87%; remaining activity at 10 µM (σ1): 76%

Reference: patent US11738008B2, “N-methyl-D-aspartic acid receptor modulators” (Emory University, priority 2018, dated 2023)
